Experimental findings from patent US9233940B2, “Cyclic peptidomimetic compounds as immunomodulators” (Aurigene Discovery Technologies Limited, priority 2014, dated 2016) are described below.

T1 sequence (Q9EP73 with tags, fused parts or gaps limits assumed): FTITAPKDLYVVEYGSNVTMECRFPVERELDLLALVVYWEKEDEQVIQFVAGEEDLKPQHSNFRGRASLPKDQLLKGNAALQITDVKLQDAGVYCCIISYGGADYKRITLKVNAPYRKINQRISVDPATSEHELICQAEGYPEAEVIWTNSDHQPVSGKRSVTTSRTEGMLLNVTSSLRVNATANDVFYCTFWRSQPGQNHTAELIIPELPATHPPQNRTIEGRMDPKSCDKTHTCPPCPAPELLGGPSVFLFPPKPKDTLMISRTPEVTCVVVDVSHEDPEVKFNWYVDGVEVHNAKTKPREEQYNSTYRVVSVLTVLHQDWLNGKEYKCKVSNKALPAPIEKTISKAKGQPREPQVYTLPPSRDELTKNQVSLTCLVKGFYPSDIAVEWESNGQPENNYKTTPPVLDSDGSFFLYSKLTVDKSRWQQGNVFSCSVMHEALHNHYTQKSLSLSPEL

The first assay concerns the target T1, recombinant mouse PD-L1 (Mus musculus, UniProt Q9EP73).
T1 construct: purchased R&D Systems 1019-B7-100
In words: Rescue of mouse splenocyte proliferation in the presence of recombinant PD-L1 (CFSE proliferation assay). The format is cell-based. Particulars: 72 h, 100 nM compound; CFSE-labelled mouse splenocytes + anti-CD3/CD28 + PD-L1, 72 h; normalised to stimulated splenocytes as 100%; read-out: Percent rescue of splenocyte proliferation @ 100 nM compound concentration. On the procedure: Rescue of Mouse Splenocyte Proliferation in the Presence of Recombinant PD-L1
Recombinant mouse PD-L1 (rm-PDL-1, cat no: 1019-B7-100; R&D Systems) were used as the source of PD-L1.
Mouse splenocytes harvested from 6-8 weeks old C57 BL6 mice; RPMI 1640 (GIBCO, Cat #11875); DMEM with high glucose (GIBCO, Cat # D6429); Fetal Bovine Serum [Hyclone, Cat # SH30071.03]; Penicillin (10000 unit/ml)-Streptomycin(10,000 μg/ml) Liquid (GIBCO, Cat #15140-122); MEM Sodium Pyruvate solution 100 mM (100×), Liquid (GIBCO, Cat #11360); Nonessential amino acid (GIBCO, Cat #11140); L-Glutamine (GIBCO, Cat #25030); Anti-CD3 antibody (eBiosciences-16-0032); Anti-CD28 antibody (eBiosciences-16-0281); ACK lysis buffer (1 mL) (GIBCO, Cat #-A10492); Histopaque (density-1.083 gm/mL) (SIGMA 10831); Trypan blue solution (SIGMA-T8154); 2 mL Norm Ject Luer Lock syringe—(Sigma 2014-12); 40 μm nylon cell strainer (BD FALCON 35230); Hemacytometer (Bright line-SIGMA Z359629); FACS Buffer (PBS/0.1% BSA): Phosphate Buffered Saline (PBS) pH 7.2 (HiMedia TS1006) with 0.1% Bovine Serum Albumin (BSA) (SIGMA A7050) and sodium azide (SIGMA 08591); 5 mM stock solution of CFSE: CFSE stock solution was prepared by diluting lyophilized CFSE with 180 μL of Dimethyl sulfoxide (DMSO C2H6SO, SIGMA-D-5879) and aliquoted in to tubes for further use. Working concentrations were titrated from 10 μm to 1 μm. (eBioscience-650850-85); 0.05% Trypsin and 0.02% EDTA (SIGMA 59417C); 96-well format ELISA plates (Corning CLS3390); BD FACS caliber (E6016); Recombinant mouse B7-H1/PDL1 Fc Chimera, (rm-PD-L1 cat no: 1019-B7-100).
Splenocytes harvested in a 50 mL falcon tube by mashing mouse spleen in a 40 μm cell strainer were further treated with 1 ml ACK lysis buffer for 5 mins at room temperature. After washing with 9 mL of RPMI complete media, cells were re-suspended in 3 ml of 1×PBS in a 15 mL tube. 3 mL of Histopaque was added carefully to the bottom of the tube without disturbing overlaying splenocyte suspension. After centrifuging at 800×g for 20 min. at room temperature, the opaque layer of splenocytes was collected carefully without disturbing/mixing the layers. Splenocytes were washed twice with cold 1×PBS followed by total cell counting using Trypan Blue exclusion method and used further for cell based assays.
Splenocytes were cultured in RPMI complete media (RPMI+10% fetal bovine serum+1 mM sodium pyruvate+10,000 units/mL penicillin and 10,000 μg/mL streptomycin) and maintained in a CO2 incubator with 5% CO2 at 37° C.
CFSE is a dye that passively diffuses into cells and binds to intracellular proteins. 1×10^6 cells/ml of harvested splenocytes were treated with 5 μm of CFSE in pre-warmed 1×PBS/0.1% BSA solution for 10 mins at 37° C. Excess CFSE was quenched using 5 volumes of ice-cold culture media to the cells and incubated on ice for 5 min. CFSE labelled splenocytes were further given three washes with ice cold complete RPMI media. CFSE labelled 1×10^5 splenocytes added to wells containing either MDA-MB231 cells (1×10^5 cells cultured in high glucose DMEM medium) or recombinant human PDL-1 (100 ng/mL) and test compounds. Splenocytes were stimulated with anti-mouse CD3 and anti-mouse CD28 antibody (1 μg/mL each), and the culture was further incubated for 72 h at 37° C. with 5% CO2. Cells were harvested and washed thrice with ice cold FACS buffer and % proliferation was analysed by flow cytometry with 488 nm excitation and 521 nm emission filters.
Percent splenocyte proliferation was analysed using cell quest FACS program and percent rescue of splenocyte proliferation by compound was estimated after deduction of % background proliferation value and normalising to % stimulated splenocyte proliferation (positive control) as 100%.
Background proliferation: Splenocytes+anti-CD3/CD28+PD-L1
Stimulated splenocytes: Splenocytes+anti-CD3/CD28 stimulation
Compound proliferation: Splenocytes+anti-CD3/CD28+PD-L1+Compound […]
For the compound `CC(O)[C@@H]1NC(=O)N[C@@H](CC(N)=O)C(=O)NNC(=O)[C@H](CO)NC(=O)COCCOCCNC1=O` (stereo partly drawn) [Compound 1], the activity at 0.1 µM was determined as 95%. For `NC(=O)C[C@@H]1NC(=O)N[C@@H](CC(=O)O)C(=O)NCCOCCOCC(=O)N[C@@H](CO)C(=O)NNC1=O` [Compound 8], the activity at 0.1 µM was found to be 68%. `CC(O)[C@H]1NC(=O)CCCCCCNC(=O)[C@@H](CO)NC(=O)N[C@H](CC(N)=O)C(=O)NNC1=O` (stereo partly drawn) [Compound 4]: the activity at 0.1 µM was 49%. Take `CC(O)[C@H]1NC(=O)COCCOCCNC(=O)[C@@H](CO)NC(=O)N[C@H](CC(N)=O)C(=O)N(C)NC1=O` (stereo partly drawn) [Compound 3]: the activity at 0.1 µM stood at 58%. Take `CC(O)[C@@H]1NC(=O)N[C@H](CC(N)=O)C(=O)NNC(=O)[C@@H](C(C)O)NC(=O)COCCOCCNC1=O` (stereo partly drawn) [Compound 10]: the activity at 0.1 µM came to 89%. As for `CCC(C)[C@@H]1NC(=O)N[C@@H](CC(N)=O)C(=O)NNC(=O)[C@H](CO)NC(=O)COCCOCCNC1=O` (stereo partly drawn) [Compound 5], the activity at 0.1 µM came to 53%. As to `NC(=O)C[C@@H]1NC(=O)N[C@H](CO)C(=O)NCCOCCOCC(=O)N[C@@H](CO)C(=O)NNC1=O` [Compound 9], the activity at 0.1 µM is 73%. Turning to `CC(O)[C@H]1NC(=O)COCCOCCNC(=O)[C@@H](CO)NC(=O)N[C@H](CC(N)=O)C(=O)NNC1=O` (stereo partly drawn) [Compound 2], the activity at 0.1 µM came to 94%.

Staying with this assay, now noted: CFSE-labelled mouse splenocytes + anti-CD3/CD28 + PD-L1, 72 h, normalised to stimulated splenocytes as 100%.
In the case of `NC(=O)C[C@@H]1NC(=O)N[C@H](CO)C(=O)NCCOCCOCC(=O)N[C@@H](CO)C(=O)NNC1=O` [Compound 12], the “Percent rescue of splenocyte proliferation @ 100 nM compound concentration” value was determined as 91.
